Results taken from the NIST ThermoML archive (doi:10.1016/j.jct.2015.08.014).
Numbers after ± are expanded uncertainties.

Experiment: xn = mol fraction of the nth substance listed
Settings: 100 kPa, Liquid; for electrical conductivity: Alternating current cell with electrodes; for mass density: Vibrating tube method; for viscosity: Capillary tube (Ostwald / Ubbelohde) method

SMILES: CCCC[N+]1(C)CCCC1.N#CN=C=[N-] [1-butyl-1-methylpyrrolidinium dicyanamide] + O=C1CCCO1
- electrical conductivity (273.15 K, Frequency=0.00892857 MHz, x1 = 0.9013): 0.563 ± 0.006 S/m
- electrical conductivity (273.15 K, Frequency=0.00892857 MHz, x1 = 1): 0.523 ± 0.005 S/m
- electrical conductivity (273.15 K, Frequency=0.00961538 MHz, x1 = 0.0463): 0.978 ± 0.016 S/m
- electrical conductivity (273.15 K, Frequency=0.00961538 MHz, x1 = 0.0987): 1.43 ± 0.017 S/m
- electrical conductivity (273.15 K, Frequency=0.00961538 MHz, x1 = 0.1449): 1.57 ± 0.016 S/m
- electrical conductivity (273.15 K, Frequency=0.00961538 MHz, x1 = 0.1859): 1.635 ± 0.016 S/m
- electrical conductivity (273.15 K, Frequency=0.00961538 MHz, x1 = 0.2493): 1.517 ± 0.015 S/m
- electrical conductivity (273.15 K, Frequency=0.00961538 MHz, x1 = 0.3029): 1.42 ± 0.015 S/m
- electrical conductivity (273.15 K, Frequency=0.00961538 MHz, x1 = 0.3845): 1.25 ± 0.013 S/m
- electrical conductivity (273.15 K, Frequency=0.00961538 MHz, x1 = 0.4985): 1.03 ± 0.011 S/m
- electrical conductivity (273.15 K, Frequency=0.00961538 MHz, x1 = 0.6954): 0.742 ± 0.008 S/m
- electrical conductivity (273.15 K, Frequency=0.00961538 MHz, x1 = 0.9013): 0.563 ± 0.006 S/m
- electrical conductivity (273.15 K, Frequency=0.00961538 MHz, x1 = 1): 0.523 ± 0.005 S/m
- electrical conductivity (273.15 K, Frequency=0.01 MHz, x1 = 0.0463): 0.978 ± 0.016 S/m
- electrical conductivity (273.15 K, Frequency=0.01 MHz, x1 = 0.0987): 1.43 ± 0.017 S/m
- electrical conductivity (273.15 K, Frequency=0.01 MHz, x1 = 0.1449): 1.57 ± 0.016 S/m
- electrical conductivity (273.15 K, Frequency=0.01 MHz, x1 = 0.1859): 1.635 ± 0.016 S/m
- electrical conductivity (273.15 K, Frequency=0.01 MHz, x1 = 0.2493): 1.517 ± 0.015 S/m
- electrical conductivity (273.15 K, Frequency=0.01 MHz, x1 = 0.3029): 1.42 ± 0.015 S/m
- electrical conductivity (273.15 K, Frequency=0.01 MHz, x1 = 0.3845): 1.25 ± 0.013 S/m
- electrical conductivity (273.15 K, Frequency=0.01 MHz, x1 = 0.4985): 1.03 ± 0.011 S/m
- electrical conductivity (273.15 K, Frequency=0.01 MHz, x1 = 0.6954): 0.742 ± 0.008 S/m
- electrical conductivity (273.15 K, Frequency=0.01 MHz, x1 = 0.9013): 0.563 ± 0.006 S/m
- electrical conductivity (273.15 K, Frequency=0.01 MHz, x1 = 1): 0.523 ± 0.005 S/m
- mass density (273.15 K, x1 = 0.0987): 1124.75 ± 9 kg/m3
- mass density (273.15 K, x1 = 0.1859): 1107.12 ± 8.9 kg/m3
- mass density (273.15 K, x1 = 0.3029): 1087.92 ± 8.7 kg/m3
- mass density (273.15 K, x1 = 0.4985): 1063.96 ± 8.5 kg/m3
- mass density (273.15 K, x1 = 0.6954): 1046.52 ± 8.4 kg/m3
- mass density (273.15 K, x1 = 0.9013): 1032.97 ± 8.3 kg/m3
- mass density (273.15 K, x1 = 1): 1027.69 ± 8.3 kg/m3
- electrical conductivity (283.15 K, x1 = 0.0463): 1.17 ± 0.02 S/m
- electrical conductivity (283.15 K, x1 = 0.0987): 1.73 ± 0.021 S/m
- electrical conductivity (283.15 K, x1 = 0.1449): 1.93 ± 0.02 S/m
- electrical conductivity (283.15 K, x1 = 0.1859): 2.028 ± 0.02 S/m
- electrical conductivity (283.15 K, x1 = 0.2493): 1.926 ± 0.019 S/m
- electrical conductivity (283.15 K, x1 = 0.3029): 1.84 ± 0.019 S/m
- electrical conductivity (283.15 K, x1 = 0.3845): 1.66 ± 0.017 S/m
- electrical conductivity (283.15 K, x1 = 0.4985): 1.407 ± 0.014 S/m
- electrical conductivity (283.15 K, x1 = 0.6954): 1.07 ± 0.011 S/m
- electrical conductivity (283.15 K, x1 = 0.9013): 0.849 ± 0.009 S/m
- electrical conductivity (283.15 K, x1 = 1): 0.786 ± 0.008 S/m
- viscosity (283.15 K, x1 = 0.0987): 3.75 ± 0.08 mPa·s
- viscosity (283.15 K, x1 = 0.1859): 5.58 ± 0.13 mPa·s
- viscosity (283.15 K, x1 = 0.3029): 8.99 ± 0.2 mPa·s
- viscosity (283.15 K, x1 = 0.4985): 17.71 ± 0.39 mPa·s
- viscosity (283.15 K, x1 = 0.6954): 30.79 ± 0.69 mPa·s
- viscosity (283.15 K, x1 = 0.9013): 49.24 ± 1.1 mPa·s
- viscosity (283.15 K, x1 = 1): 59.6 ± 1.4 mPa·s
- electrical conductivity (283.15 K, Frequency=0.0005 MHz, x1 = 0.0463): 1.16 ± 0.02 S/m
- electrical conductivity (283.15 K, Frequency=0.0005 MHz, x1 = 0.0987): 1.73 ± 0.021 S/m
- electrical conductivity (283.15 K, Frequency=0.0005 MHz, x1 = 0.1449): 1.92 ± 0.02 S/m
- electrical conductivity (283.15 K, Frequency=0.0005 MHz, x1 = 0.1859): 2.018 ± 0.02 S/m
- electrical conductivity (283.15 K, Frequency=0.0005 MHz, x1 = 0.2493): 1.921 ± 0.019 S/m
- electrical conductivity (283.15 K, Frequency=0.0005 MHz, x1 = 0.3029): 1.84 ± 0.019 S/m
- electrical conductivity (283.15 K, Frequency=0.0005 MHz, x1 = 0.3845): 1.65 ± 0.017 S/m
- electrical conductivity (283.15 K, Frequency=0.0005 MHz, x1 = 0.4985): 1.407 ± 0.014 S/m
- electrical conductivity (283.15 K, Frequency=0.0005 MHz, x1 = 0.6954): 1.07 ± 0.01 S/m
- electrical conductivity (283.15 K, Frequency=0.0005 MHz, x1 = 0.9013): 0.849 ± 0.009 S/m
- electrical conductivity (283.15 K, Frequency=0.0005 MHz, x1 = 1): 0.786 ± 0.008 S/m
- electrical conductivity (283.15 K, Frequency=0.001 MHz, x1 = 0.0463): 1.16 ± 0.02 S/m
- electrical conductivity (283.15 K, Frequency=0.001 MHz, x1 = 0.0987): 1.73 ± 0.021 S/m
- electrical conductivity (283.15 K, Frequency=0.001 MHz, x1 = 0.1449): 1.92 ± 0.02 S/m
- electrical conductivity (283.15 K, Frequency=0.001 MHz, x1 = 0.1859): 2.027 ± 0.02 S/m
- electrical conductivity (283.15 K, Frequency=0.001 MHz, x1 = 0.2493): 1.923 ± 0.019 S/m
- electrical conductivity (283.15 K, Frequency=0.001 MHz, x1 = 0.3029): 1.84 ± 0.019 S/m
- electrical conductivity (283.15 K, Frequency=0.001 MHz, x1 = 0.3845): 1.65 ± 0.017 S/m
- electrical conductivity (283.15 K, Frequency=0.001 MHz, x1 = 0.4985): 1.407 ± 0.014 S/m
- electrical conductivity (283.15 K, Frequency=0.001 MHz, x1 = 0.6954): 1.07 ± 0.01 S/m
- electrical conductivity (283.15 K, Frequency=0.001 MHz, x1 = 0.9013): 0.849 ± 0.009 S/m
- electrical conductivity (283.15 K, Frequency=0.001 MHz, x1 = 1): 0.786 ± 0.008 S/m
- electrical conductivity (283.15 K, Frequency=0.0015 MHz, x1 = 0.0463): 1.17 ± 0.02 S/m
- electrical conductivity (283.15 K, Frequency=0.0015 MHz, x1 = 0.0987): 1.73 ± 0.021 S/m
- electrical conductivity (283.15 K, Frequency=0.0015 MHz, x1 = 0.1449): 1.92 ± 0.02 S/m
- electrical conductivity (283.15 K, Frequency=0.0015 MHz, x1 = 0.1859): 2.027 ± 0.02 S/m
- electrical conductivity (283.15 K, Frequency=0.0015 MHz, x1 = 0.2493): 1.924 ± 0.019 S/m
- electrical conductivity (283.15 K, Frequency=0.0015 MHz, x1 = 0.3029): 1.84 ± 0.019 S/m
- electrical conductivity (283.15 K, Frequency=0.0015 MHz, x1 = 0.3845): 1.66 ± 0.017 S/m
- electrical conductivity (283.15 K, Frequency=0.0015 MHz, x1 = 0.4985): 1.407 ± 0.014 S/m
- electrical conductivity (283.15 K, Frequency=0.0015 MHz, x1 = 0.6954): 1.07 ± 0.01 S/m
- electrical conductivity (283.15 K, Frequency=0.0015 MHz, x1 = 0.9013): 0.849 ± 0.009 S/m
- electrical conductivity (283.15 K, Frequency=0.0015 MHz, x1 = 1): 0.786 ± 0.008 S/m
- electrical conductivity (283.15 K, Frequency=0.002 MHz, x1 = 0.0463): 1.17 ± 0.02 S/m
- electrical conductivity (283.15 K, Frequency=0.002 MHz, x1 = 0.0987): 1.73 ± 0.021 S/m
- electrical conductivity (283.15 K, Frequency=0.002 MHz, x1 = 0.1449): 1.92 ± 0.02 S/m
- electrical conductivity (283.15 K, Frequency=0.002 MHz, x1 = 0.1859): 2.027 ± 0.02 S/m
- electrical conductivity (283.15 K, Frequency=0.002 MHz, x1 = 0.2493): 1.925 ± 0.019 S/m
- electrical conductivity (283.15 K, Frequency=0.002 MHz, x1 = 0.3029): 1.84 ± 0.019 S/m
- electrical conductivity (283.15 K, Frequency=0.002 MHz, x1 = 0.3845): 1.66 ± 0.017 S/m
- electrical conductivity (283.15 K, Frequency=0.002 MHz, x1 = 0.4985): 1.407 ± 0.014 S/m
- electrical conductivity (283.15 K, Frequency=0.002 MHz, x1 = 0.6954): 1.07 ± 0.01 S/m
- electrical conductivity (283.15 K, Frequency=0.002 MHz, x1 = 0.9013): 0.849 ± 0.009 S/m
- electrical conductivity (283.15 K, Frequency=0.002 MHz, x1 = 1): 0.786 ± 0.008 S/m
- electrical conductivity (283.15 K, Frequency=0.0025 MHz, x1 = 0.0463): 1.17 ± 0.02 S/m
- electrical conductivity (283.15 K, Frequency=0.0025 MHz, x1 = 0.0987): 1.73 ± 0.021 S/m
- electrical conductivity (283.15 K, Frequency=0.0025 MHz, x1 = 0.1449): 1.93 ± 0.02 S/m
- electrical conductivity (283.15 K, Frequency=0.0025 MHz, x1 = 0.1859): 2.028 ± 0.02 S/m
- electrical conductivity (283.15 K, Frequency=0.0025 MHz, x1 = 0.2493): 1.925 ± 0.019 S/m
- electrical conductivity (283.15 K, Frequency=0.0025 MHz, x1 = 0.3029): 1.84 ± 0.019 S/m
- electrical conductivity (283.15 K, Frequency=0.0025 MHz, x1 = 0.3845): 1.66 ± 0.017 S/m
- electrical conductivity (283.15 K, Frequency=0.0025 MHz, x1 = 0.4985): 1.407 ± 0.014 S/m
- electrical conductivity (283.15 K, Frequency=0.0025 MHz, x1 = 0.6954): 1.07 ± 0.01 S/m
- electrical conductivity (283.15 K, Frequency=0.0025 MHz, x1 = 0.9013): 0.849 ± 0.009 S/m
- electrical conductivity (283.15 K, Frequency=0.0025 MHz, x1 = 1): 0.786 ± 0.008 S/m
- electrical conductivity (283.15 K, Frequency=0.003 MHz, x1 = 0.0463): 1.17 ± 0.02 S/m
- electrical conductivity (283.15 K, Frequency=0.003 MHz, x1 = 0.0987): 1.73 ± 0.021 S/m
- electrical conductivity (283.15 K, Frequency=0.003 MHz, x1 = 0.1449): 1.93 ± 0.02 S/m
